In patent publication US7927622B1, “Methods of transnasal transport/immunization with highly adaptable carriers” (priority 1999, dated 2011):
Non-standard residues stand in square brackets, D forms with d. Residues, ends and D or L forms follow the SMILES beside them. dTrp(2-Me) = Cc1[nH]c2ccccc2c1C[C@@H](N)C(=O)O

Columns and labels:
[1] = cited from earlier work
[2] = system: GH response; conditions: in vivo, cited from earlier work
[3] = in vivo, cited from earlier work
[4] = in vivo; cited from earlier work
[5] = rat, in vivo, sc; cited from earlier work
[6] = human, in vivo; cited from earlier work
[7] = system: anti-TT antibodies; set-up: species or system mice; conditions: mouse, in vivo
[8] = biological target: A-receptor subtype (Canis lupus familiaris, UniProt Q5D0K2); conditions: dog, in vivo; cited from earlier work
[9] = human, in vivo, cited from earlier work
[10] = in vivo; cited from earlier work; remark: listed apart in the source
[11] = in vivo; cited from earlier work; remark: listed apart in the source
[12] = in vivo; cited from earlier work; remark: listed apart in the source
[13] = in vivo; cited from earlier work; remark: listed apart in the source
[14] = in vivo; cited from earlier work; remark: listed apart in the source
[15] = cited from earlier work; remark: listed apart in the source
[16] = cited from earlier work; remark: listed apart in the source
[17] = stomach and GI tract, cited from earlier work
[18] = with polyoxyethylene 9-lauryl ether (Laureth-9)

Sequence of A-receptor subtype (Q5D0K2 whole entry): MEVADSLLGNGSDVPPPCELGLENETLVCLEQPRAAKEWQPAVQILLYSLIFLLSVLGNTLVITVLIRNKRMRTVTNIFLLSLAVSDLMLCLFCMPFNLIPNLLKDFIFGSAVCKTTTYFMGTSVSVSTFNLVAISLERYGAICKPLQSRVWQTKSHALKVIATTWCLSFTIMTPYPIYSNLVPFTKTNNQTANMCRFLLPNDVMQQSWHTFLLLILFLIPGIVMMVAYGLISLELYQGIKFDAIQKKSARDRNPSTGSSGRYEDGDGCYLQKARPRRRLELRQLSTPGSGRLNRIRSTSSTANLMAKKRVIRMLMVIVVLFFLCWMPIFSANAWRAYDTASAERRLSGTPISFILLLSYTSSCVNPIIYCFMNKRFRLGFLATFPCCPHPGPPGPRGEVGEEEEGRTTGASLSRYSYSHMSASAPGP

## GH: growth hormone protein
[1]; i.v. 0.015 IU/kg
  serum GH peak value: 128 µg/L
[1]; s.c. 0.10 IU/kg
  serum GH peak level: around 14 μg/L
[1]; s.c. administration only
  serum IGF-I levels: increased significantly
[1]; s.c. injection
  bioavailability: 50%

## Cc1[nH]c2ccccc2c1C[C@@H](NC(=O)[C@@H](N)Cc1cnc[nH]1)C(=O)N[C@@H](C)C(=O)N[C@@H](Cc1c[nH]c2ccccc12)C(=O)N[C@H](Cc1ccccc1)C(=O)N[C@@H](CCCCN)C(N)=O [hexarelin] (H-H[dTrp(2-Me)]AW[dF]K-NH2)
[2]; po
  IGF-I and IGFBP-3 levels: slightly but significantly increased
[2]
  GH response: not significantly higher than that induced by an injection of 1 μg GHRH/kg
  IGF-I: did not significantly modify
  IGFBP-3 levels: increased

## NC(=O)CC[C@@H]1NC(=O)[C@H](Cc2ccccc2)NC(=O)[C@H](Cc2ccc(O)cc2)NC(=O)[C@@H](N)CSSC[C@@H](C(=O)N2CCC[C@H]2C(=O)N[C@@H](CCCN=C(N)N)C(=O)NCC(N)=O)NC(=O)[C@H](CC(N)=O)NC1=O [AVP]
[3]; iv
  plasma vasopressin increase after i.v. relative to the other route: exceeding 2000 fold
[3]
  P3 component of the ERP: substantially increased
[4]
  memory performance: enhanced memory performance

## Salmon calcitonin
[5]
  effectiveness of the invasive method relative to nasal: approximately 2 times
  osteopenic changes: prevented the osteopenic changes
[6]
  decrease in serum 1,25-dihydroxyvitamin D: 14%
  inhibition of the increase in fasting 2 h urinary hydroxyproline/creatinine ratio (OHPr/Cr): 40%
  lowering of the increase in calcium/creatinine ratio (Ca/Cr): 80%
  pain scores (visual analog scale): did not influence the pain scores
  tolerability: well tolerated

## monophosphoryl Lipid A [LA]
[7]
  dependence of immune response on LA: no strong dependence was found
  dose dependence of TT-specific increase in serum absorbance: reverting this trend
  effect of LA with purified TT: profited from the presence of LA

## Hpa(SO3H)-Nle-Gly-Trp-Nle-MeAsp-Phe-NH2
[8]
  feeding: inhibited feeding

## CCK-8
[9]; iv
  auditory event related potential (AERP): shown to affect the auditory event related potential (AERP)
[9]
  plasma CCK-8 concentrations vs 0.25 μg i.v.: comparable
  plasma CCK-8 concentrations vs 2.5 μg i.v.: substantially lower

## GHRP-2
[10]
  response to intranasal GHRP-2: significant, but not quantitated, response

## NC(=O)CC[C@@H]1NC(=O)[C@H](Cc2ccccc2)NC(=O)[C@H](Cc2ccc(O)cc2)NC(=O)[C@@H](N)CSSC[C@@H](C(=O)N2CCC[C@H]2C(=O)N[C@@H](CCCN=C(N)N)C(=O)NCC(N)=O)NC(=O)[C@H](CC(N)=O)NC1=O [vasopressin]
[11]
  nocturnal slow-wave sleep: enhance nocturnal slow-wave sleep

## NC(=O)CC[C@@H]1NC(=O)[C@H](Cc2ccccc2)NC(=O)[C@H](Cc2ccc(O)cc2)NC(=O)CCSSC[C@@H](C(=O)N2CCC[C@H]2C(=O)N[C@H](CCCN=C(N)N)C(=O)NCC(N)=O)NC(=O)[C@H](CC(N)=O)NC1=O [DDAVP]
[12]
  pain perception: no general effect

## CCNC(=O)[C@@H]1CCCN1C(=O)[C@H](CCCNC(=N)N)NC(=O)[C@H](CC(C)C)NC(=O)[C@@H](COC(C)(C)C)NC(=O)[C@H](Cc1ccc(O)cc1)NC(=O)[C@H](CO)NC(=O)[C@H](Cc1c[nH]c2ccccc12)NC(=O)[C@H](Cc1cnc[nH]1)NC(=O)[C@@H]1CCC(=O)N1 [buserelin]
[13]
  AFS mean pelvic score after treatment (from 24): 7
  decrease of the size of the fibroids: 69%

## desglycinamide-[Arg8]vasopressin [DGAVP]
[14]
  learning concrete words: no positive effect
  reaction time for scanning of digits (Sternberg paradigm): reduced the reaction time
  short-term memory for abstract words: improved short-term memory for abstract words in males but not in females

B1: rhG-CSF: recombinant human granulocyte colony-stimulating factor, MW=19600 (protein, UniProt P09919 31-207, looked up)
Granulocyte …: TPLGPASSLPQSFLLKCLEQVRKIQGDGAALQEKLVSECATYKLCHPEELVLLGHSLGIPWAPLSSCPSQALQLAGCLSQLHSGLFLYQGLLQALEGISPELGPTLDTLQLDVADFATTIWQQMEELGMAPALQPTQGAMPAFASAFQRRAGGVLVASHLQSFLEVSYRVLRHLAQP
[15]; nasal, t=48 h
  availability from leukocyte stimulation counts: 5-10%
[15]; rat, in vivo
  relative bioavailability compared to s.c. injection (plasma AUC): approximately 2%
[15]; [18]
  increase of pharmacological availability: 3 times
  increase of relative bioavailability: 23 times
[15]; with sodium glycocholate
  change of availability: no increase in availability
[16]; nasal, pH 4, with or without dimethyl-β-cyclodextrin
  total leukocyte numbers in peripheral blood: increased
[16]; with dimethyl-β-cyclodextrin
  absorption with excipients: improved the absorption of rhG-CSF appreciably

B2: OVA: ovalbumin (protein, UniProt P01012 2-386, looked up)
Ovalbumin: GSIGAASMEFCFDVFKELKVHHANENIFYCPIAIMSALAMVYLGAKDSTRTQINKVVRFDKLPGFGDSIEAQCGTSVNVHSSLRDILNQITKPNDVYSFSLASRLYAEERYPILPEYLQCVKELYRGGLEPINFQTAADQARELINSWVESQTNGIIRNVLQPSSVDSQTAMVLVNAIVFKGLWEKAFKDEDTQAMPFRVTEQESKPVQMMYQIGLFRVASMASEKMKILELPFASGTMSMLVLLPDEVSGLEQLESIINFEKLTEWTSSNVMEERKIKVYLPRMKMEEKYNLTSVLMAMGITDVFSSSANLSGISSAESLKISQAVHAAHAEINEAGREVVGSAEAGVDAASVSEEFRADHPFLFCIKHIATNAVLFFGRCVSP
[17]; first printed range
  absorption into the blood circulation, of applied dose: 0.007-0.008%
[17]; second printed range
  absorption into the lymph circulation, of applied dose: 0.0007-0.002%
